Measurements as given in US12391737B2, “Soluble NPY2 receptor agonists” (Boehringer Ingelheim International GmbH, priority 2020, dated 2025).

Experiments:
[1] = target: T1, Human Neuropeptide Y2 Receptor (Homo sapiens, UniProt P49146); experiment: Radioligand binding competition assay (RLB); settings: Table 3, 125I-PYY(1-36) competition; read-out: Ki
T1 construct: purchased CHEMICON HTS066M
T1 sequence (P49146 1-381): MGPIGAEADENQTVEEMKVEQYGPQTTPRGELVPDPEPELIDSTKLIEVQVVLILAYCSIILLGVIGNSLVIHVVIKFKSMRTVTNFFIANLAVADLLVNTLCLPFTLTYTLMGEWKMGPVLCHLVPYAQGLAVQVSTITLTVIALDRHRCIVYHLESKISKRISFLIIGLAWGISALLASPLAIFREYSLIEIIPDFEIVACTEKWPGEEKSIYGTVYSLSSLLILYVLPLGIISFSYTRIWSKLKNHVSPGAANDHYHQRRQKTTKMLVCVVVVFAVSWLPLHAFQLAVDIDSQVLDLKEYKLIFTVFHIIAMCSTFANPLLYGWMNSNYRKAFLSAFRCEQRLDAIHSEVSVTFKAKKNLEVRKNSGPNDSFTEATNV
Experimental: The filtration RLB assay was carried out in 96-well plates in a final volume of 100 μl per well. Freeze-dried test peptides were dissolved in 100% dimethyl sulfoxide (DMSO) to stock solutions of 1 mM and serial dilutions were performed in assay buffer (50 mM HEPES, 5 mM MgCl2, 1 mM CaCl2, pH 7.4) containing 0.2% ovalbumin. […] Next, 80 μL membranes (HTS066M, ChemiSCREEN™ Human Neuropeptide Y2 Receptor Membrane Preparation, CHEMICON) were added to each well to give a final protein concentration of 0.5 μg/well. The plates were sealed and incubated at room temperature for 2 hours in a plate shaker set at 400 rpm. The incubation was stopped by vacuum filtration onto 0.5% polyethylene amine (PE) presoaked GF/C filters using a 96-well FilterMate™ harvester (Perkin Elmer) followed by four washes with 300 μl/well ice-cold wash buffer (50 mM HEPES, 500 mM NaCl, pH7.4). Filter plates were then dried for 60 min at room temperature and the bottom of the plates was sealed with backing tape UniFilter-96. Finally, 50 μl/well scintillation counter cocktail (Microscint20, Packard) was added and the radioactivity was counted in the Packard TopCount NXT scintillation counter. IC50 values (the half maximal inhibitory concentration of the agonist) were calculated by nonlinear regression analysis of sigmoidal dose-response curves.

Solubility determination = settings: for Sol6: pH 6; for Sol7: pH 7
Experimental: Peptides (as TFA salts) were weighed out in a filter unit (Mini-UniPrep Syringeless Filter 0.45 μm, Whatman), and 0.1 M sodium diphosphate buffer at pH 6.4 or 7.0 was added to achieve 10 mg/ml final concentration. The peptide was dissolved by shaking the filter unit horizontally at 600 rpm for 2 hours at room temperature. The sample was filtered, to remove any insoluble particles and diluted to 1 mg/ml in 50% acetonitrile. The control was prepared by weighing out the corresponding peptide and dissolving it in 50% acetonitrile to final concentration of 1 mg/ml. Both the control and sample were analysed with reversed phase chromatography. The area under the peak of the sample was compared to the control and the solubility was calculated based on that ratio.
The pH was measured and recorded for each sample.
System: UltiMate 3000 UPLC, ThermoFisher
Mobile phase A: 5% acetonitrile, 95% water, 0.03% trifluoracetic acid.
Mobile phase B: 95% acetonitrile, 5% water, 0.03% trifluoracetic acid.
Gradient: 0-100% mobile phase B (2 mins.)
Column temperature: 50° C.

| Structure (SMILES) | Ki [1] [nM] | Sol6 (Solubility determination) [mg/mL] | Sol7 (Solubility determination) [mg/mL] |
| --- | --- | --- | --- |
| CC[C@H](C)[C@H](NC(=O)[C@H](Cc1ccc(O)cc1)NC(=O)[C@H](Cc1ccc(O)cc1)NC(=O)[C@H](CCCNC(=N)N)NC(=O)[C@H](CCC(N)=O)NC(=O)[C@H](CC(C)C)NC(=O)[C@H](CCC(=O)O)NC(=O)[C@H](CCC(=O)O)NC(=O)[C@@H]1CCCN1C(=O)[C@H](CCC(=O)O)NC(=O)[C@H](C)NC(=O)[C@H](CC(=O)O)NC(=O)[C@H](C)NC(=O)[C@H](CCC(=O)O)NC(=O)[C@@H]1CCCN1C(=O)[C@H](CCCCNC(=O)CCCCCNC(=O)CC[C@H](NC(=O)CCCCCCCCCCCCCCCCC(=O)O)C(=O)O)NC(=O)[C@H](CCC(=O)O)NC(=O)[C@@H]1CCCN1C(=O)[C@H](C)NC(=O)CC(C)C)C(=O)N[C@@H](C)C(=O)N[C@@H](CC(C)C)C(=O)N[C@@H](CCCNC(=N)N)C(=O)N[C@@H](Cc1c[nH]cn1)C(=O)N[C@@H](Cc1ccc(O)cc1)C(=O)N[C@@H](Cc1ccc(O)cc1)C(=O)N[C@@H](CC(N)=O)C(=O)N[C@@H](Cc1c[nH]c2ccccc12)C(=O)N[C@@H](CC(C)C)C(=O)N[C@H](C(=O)N[C@@H](CCCNC(=N)N)C(=O)N[C@@H](CCC(N)=O)C(=O)N[C@@H](CCCNC(=N)N)C(=O)N[C@@H](Cc1ccc(O)cc1)C(N)=O)[C@@H](C)O [Compound 1, N{alpha-4}-(3-methylbutanoyl)-N{epsilon-7}-(6-[(4S)-4-carboxy-4-(17-carboxyheptadecanamido)butanamido]hexanoyl)[4A,7K,9E,10A,13E,18Q,22I,23A,28Y,30W,31L]-hPYY(4-36)] | 2.05 | 10.0 | 7.6 |
| CC(C)CC(=O)N[C@@H](C)C(=O)N1CCC[C@H]1C(=O)N[C@@H](C)C(=O)N[C@@H](CCCCNC(=O)CCCCCNC(=O)CC[C@H](NC(=O)CCCCCCCCCCCCCCCCC(=O)O)C(=O)O)C(=O)N1CCC[C@H]1C(=O)N[C@@H](CCC(=O)O)C(=O)N[C@@H](C)C(=O)N[C@@H](CC(=O)O)C(=O)N[C@@H](C)C(=O)N[C@@H](CCC(=O)O)C(=O)N1CCC[C@H]1C(=O)N[C@@H](CCC(=O)O)C(=O)N[C@@H](CCC(=O)O)C(=O)N[C@@H](CC(C)C)C(=O)N[C@@H](CCC(N)=O)C(=O)N[C@@H](CCCNC(=N)N)C(=O)N[C@@H](Cc1ccc(O)cc1)C(=O)N[C@@H](Cc1ccc(O)cc1)C(=O)N[C@H](C(=O)N[C@@H](C)C(=O)N[C@@H](CC(C)C)C(=O)N[C@@H](CCCNC(=N)N)C(=O)N[C@@H](Cc1c[nH]cn1)C(=O)N[C@@H](Cc1ccc(O)cc1)C(=O)N[C@@H](Cc1ccc(O)cc1)C(=O)N[C@@H](CC(N)=O)C(=O)N[C@@H](Cc1c[nH]c2ccccc12)C(=O)N[C@@H](CC(C)C)C(=O)N[C@H](C(=O)N[C@@H](CCCNC(=N)N)C(=O)N[C@@H](CCC(N)=O)C(=O)N[C@@H](CCCNC(=N)N)C(=O)N[C@@H](Cc1ccc(O)cc1)C(N)=O)[C@@H](C)O)C(C)C [Compound 3, N{alpha-4}-(3-methylbutanoyl)-N{epsilon-7}-(6-[(4S)-4-carboxy-4-(17-carboxyheptadecanamido)butanamido]hexanoyl)[4A,6A,7K,9E,10A,13E,18Q,22V,23A,28Y,30W,31L]-hPYY(4-36)] | 1.57 | 10.0 | 10.0 |
| CC(C)CC(=O)N[C@@H](C)C(=O)N1CCC[C@H]1C(=O)N[C@@H](CCC(=O)O)C(=O)N[C@@H](CCCCNC(=O)CCCCCNC(=O)CC[C@H](NC(=O)CCCCCCCCCCCCCCCCC(=O)O)C(=O)O)C(=O)N1CCC[C@H]1C(=O)N[C@@H](CCC(=O)O)C(=O)N[C@@H](CCC(=O)O)C(=O)N[C@@H](C)C(=O)N[C@@H](C)C(=O)N[C@@H](CCC(=O)O)C(=O)N1CCC[C@H]1C(=O)N[C@@H](CCC(=O)O)C(=O)N[C@@H](CCC(=O)O)C(=O)N[C@@H](CC(C)C)C(=O)N[C@@H](CCC(N)=O)C(=O)N[C@@H](CCCNC(=N)N)C(=O)N[C@@H](Cc1ccc(O)cc1)C(=O)N[C@@H](Cc1ccc(O)cc1)C(=O)N[C@H](C(=O)N[C@@H](CO)C(=O)N[C@@H](CC(C)C)C(=O)N[C@@H](CCCNC(=N)N)C(=O)N[C@@H](Cc1c[nH]cn1)C(=O)N[C@@H](Cc1ccc(O)cc1)C(=O)N[C@@H](Cc1ccc(O)cc1)C(=O)N[C@@H](CC(N)=O)C(=O)N[C@@H](Cc1c[nH]c2ccccc12)C(=O)N[C@@H](CC(C)C)C(=O)N[C@H](C(=O)N[C@@H](CCCNC(=N)N)C(=O)N[C@@H](CCC(N)=O)C(=O)N[C@@H](CCCNC(=N)N)C(=O)N[C@@H](Cc1ccc(O)cc1)C(N)=O)[C@@H](C)O)C(C)C [Compound 4, N{alpha-4}-(3-methylbutanoyl)-N{epsilon-7}-(6-[(4S)-4-carboxy-4-(17-carboxyheptadecanamido)butanamido]hexanoyl)[4A,7K,9E,11A,13E,18Q,22V,28Y,30W,31L]-hPYY(4-36)] | 4.65 | 10.0 | 10.0 |
| CC[C@H](C)[C@H](NC(=O)[C@H](CCC(=O)O)NC(=O)[C@H](CCC(=O)O)NC(=O)[C@@H]1CCCN1C(=O)[C@H](CCC(=O)O)NC(=O)[C@H](C)NC(=O)[C@H](C)NC(=O)[C@H](C)NC(=O)[C@H](CCC(=O)O)NC(=O)[C@@H]1CCCN1C(=O)[C@H](CCCCNC(=O)CCCCCNC(=O)CC[C@H](NC(=O)CCCCCCCCCCCCCCCCC(=O)O)C(=O)O)NC(=O)[C@H](C)NC(=O)[C@@H]1CCCN1C(=O)[C@H](C)NC(=O)CC(C)C)C(=O)N[C@@H](CCC(N)=O)C(=O)N[C@@H](CCCNC(=N)N)C(=O)N[C@@H](Cc1ccc(O)cc1)C(=O)N[C@@H](Cc1ccc(O)cc1)C(=O)N[C@H](C(=O)N[C@@H](C)C(=O)N[C@@H](CC(C)C)C(=O)N[C@@H](CCCNC(=N)N)C(=O)N[C@@H](Cc1c[nH]cn1)C(=O)N[C@@H](Cc1ccc(O)cc1)C(=O)N[C@@H](Cc1ccc(O)cc1)C(=O)N[C@@H](CC(N)=O)C(=O)N[C@@H](Cc1c[nH]c2ccccc12)C(=O)N[C@@H](CC(C)C)C(=O)N[C@H](C(=O)N[C@@H](CCCNC(=N)N)C(=O)N[C@@H](CCC(N)=O)C(=O)N[C@@H](CCCNC(=N)N)C(=O)N[C@@H](Cc1ccc(O)cc1)C(N)=O)[C@@H](C)O)C(C)C [Compound 116, N{alpha-4}-(3-methylbutanoyl)-N{epsilon-7}-(6-[(4S)-4-carboxy-4-(17-carboxyheptadecanamido)butanamido]hexanoyl)-[4A,6A,7K,9E,10A,11A,13E,17I,18Q,22V,23A,28Y,30W,31L]-hPYY(4-36)] | – | 0.0 | 0.0 |
| CC(C)CC(=O)N[C@@H](C)C(=O)N1CCC[C@H]1C(=O)N[C@@H](C)C(=O)N[C@@H](CCCCNC(=O)CCCCCNC(=O)CC[C@H](NC(=O)CCCCCCCCCCCCCCCCC(=O)O)C(=O)O)C(=O)N1CCC[C@H]1C(=O)N1CCC[C@H]1C(=O)N[C@@H](CCC(=O)O)C(=O)N[C@@H](CC(=O)O)C(=O)N[C@@H](C)C(=O)N[C@@H](CCC(=O)O)C(=O)N1CCC[C@H]1C(=O)N[C@@H](CCC(=O)O)C(=O)N[C@@H](CCC(=O)O)C(=O)N[C@@H](CC(C)C)C(=O)N[C@@H](CCC(N)=O)C(=O)N[C@@H](CCCNC(=N)N)C(=O)N[C@@H](Cc1ccc(O)cc1)C(=O)N[C@@H](Cc1ccc(O)cc1)C(=O)N[C@H](C(=O)N[C@@H](CO)C(=O)N[C@@H](CC(C)C)C(=O)N[C@@H](CCCNC(=N)N)C(=O)N[C@@H](Cc1c[nH]cn1)C(=O)N[C@@H](Cc1ccc(O)cc1)C(=O)N[C@@H](Cc1ccc(O)cc1)C(=O)N[C@@H](CC(N)=O)C(=O)N[C@@H](Cc1c[nH]c2ccccc12)C(=O)N[C@@H](CC(C)C)C(=O)N[C@H](C(=O)N[C@@H](CCCNC(=N)N)C(=O)N[C@@H](CCC(N)=O)C(=O)N[C@@H](CCCNC(=N)N)C(=O)N[C@@H](Cc1ccc(O)cc1)C(N)=O)[C@@H](C)O)C(C)C [Compound 165, N{alpha-4}-(3-methylbutanoyl)-N{epsilon-7}-(6-[(4S)-4-carboxy-4-(17-carboxyheptadecanamido)butanamido]hexanoyl)-[4A,6A,7K,9P,13E,18Q,22V,28Y,30W,31L]-hPYY(4-36)] | – | 8.8 | 9.1 |
